In BindingDB's records for patent US9669095 (Enanta Pharmaceuticals, 2017):
pEC50: −log10 of the molar value.

Each molecule was assayed against Genome polyprotein (Hepatitis C virus genotype 1a (isolate H77), UniProt P27958) (assay: HCV Replicon Assay Luciferase). Conditions: 37 °C.
Procedure: Briefly, replicon cells are seeded at 7,000 cells per well in 90 ul DMEM (without phenol red, Invitrogen Cat. #31053-036) per well with 10% FCS, 1% non-essential amino acids, 1% of Glutamax and 1% of 100 penicillin/streptomycin and incubated overnight at 37° C., 5% CO2, 100% relative humidity. 16-20 h after seeding cells, test compounds previously solubilized and titrated in dimethyl sulfoxide ( DMSO") from each X plate and Y plate are diluted 1:100 in DMEM (without phenol red, Invitrogen Cat. #31053-036) with 10% FCS, 1% non-essential amino acids, 1% of Glutamax and 1% of 100 penicillin/streptomycin and added directly to the 96-well plate containing cells and growth medium at a 1:10 dilution for a final dilution of compound and DMSO of 1:1000 ([…]). Drug treated cells are incubated at 37° C., 5% CO2, 100% relative humidity for 72 hours before performing a luciferase assay using 100 ul per well BriteLite Plus (Perkin Elmer) according to the manufacturer's instructions. Data analysis utilizes the method published by Prichard and Shipman (Antiviral Research, 1990. 14:181-205). Using this method, the combination data are analyzed for antagonistic, additive, or synergistic combination effects across the entire combination surface created by the diluted compounds in combination.

Sequence of Genome polyprotein (P27958 whole entry): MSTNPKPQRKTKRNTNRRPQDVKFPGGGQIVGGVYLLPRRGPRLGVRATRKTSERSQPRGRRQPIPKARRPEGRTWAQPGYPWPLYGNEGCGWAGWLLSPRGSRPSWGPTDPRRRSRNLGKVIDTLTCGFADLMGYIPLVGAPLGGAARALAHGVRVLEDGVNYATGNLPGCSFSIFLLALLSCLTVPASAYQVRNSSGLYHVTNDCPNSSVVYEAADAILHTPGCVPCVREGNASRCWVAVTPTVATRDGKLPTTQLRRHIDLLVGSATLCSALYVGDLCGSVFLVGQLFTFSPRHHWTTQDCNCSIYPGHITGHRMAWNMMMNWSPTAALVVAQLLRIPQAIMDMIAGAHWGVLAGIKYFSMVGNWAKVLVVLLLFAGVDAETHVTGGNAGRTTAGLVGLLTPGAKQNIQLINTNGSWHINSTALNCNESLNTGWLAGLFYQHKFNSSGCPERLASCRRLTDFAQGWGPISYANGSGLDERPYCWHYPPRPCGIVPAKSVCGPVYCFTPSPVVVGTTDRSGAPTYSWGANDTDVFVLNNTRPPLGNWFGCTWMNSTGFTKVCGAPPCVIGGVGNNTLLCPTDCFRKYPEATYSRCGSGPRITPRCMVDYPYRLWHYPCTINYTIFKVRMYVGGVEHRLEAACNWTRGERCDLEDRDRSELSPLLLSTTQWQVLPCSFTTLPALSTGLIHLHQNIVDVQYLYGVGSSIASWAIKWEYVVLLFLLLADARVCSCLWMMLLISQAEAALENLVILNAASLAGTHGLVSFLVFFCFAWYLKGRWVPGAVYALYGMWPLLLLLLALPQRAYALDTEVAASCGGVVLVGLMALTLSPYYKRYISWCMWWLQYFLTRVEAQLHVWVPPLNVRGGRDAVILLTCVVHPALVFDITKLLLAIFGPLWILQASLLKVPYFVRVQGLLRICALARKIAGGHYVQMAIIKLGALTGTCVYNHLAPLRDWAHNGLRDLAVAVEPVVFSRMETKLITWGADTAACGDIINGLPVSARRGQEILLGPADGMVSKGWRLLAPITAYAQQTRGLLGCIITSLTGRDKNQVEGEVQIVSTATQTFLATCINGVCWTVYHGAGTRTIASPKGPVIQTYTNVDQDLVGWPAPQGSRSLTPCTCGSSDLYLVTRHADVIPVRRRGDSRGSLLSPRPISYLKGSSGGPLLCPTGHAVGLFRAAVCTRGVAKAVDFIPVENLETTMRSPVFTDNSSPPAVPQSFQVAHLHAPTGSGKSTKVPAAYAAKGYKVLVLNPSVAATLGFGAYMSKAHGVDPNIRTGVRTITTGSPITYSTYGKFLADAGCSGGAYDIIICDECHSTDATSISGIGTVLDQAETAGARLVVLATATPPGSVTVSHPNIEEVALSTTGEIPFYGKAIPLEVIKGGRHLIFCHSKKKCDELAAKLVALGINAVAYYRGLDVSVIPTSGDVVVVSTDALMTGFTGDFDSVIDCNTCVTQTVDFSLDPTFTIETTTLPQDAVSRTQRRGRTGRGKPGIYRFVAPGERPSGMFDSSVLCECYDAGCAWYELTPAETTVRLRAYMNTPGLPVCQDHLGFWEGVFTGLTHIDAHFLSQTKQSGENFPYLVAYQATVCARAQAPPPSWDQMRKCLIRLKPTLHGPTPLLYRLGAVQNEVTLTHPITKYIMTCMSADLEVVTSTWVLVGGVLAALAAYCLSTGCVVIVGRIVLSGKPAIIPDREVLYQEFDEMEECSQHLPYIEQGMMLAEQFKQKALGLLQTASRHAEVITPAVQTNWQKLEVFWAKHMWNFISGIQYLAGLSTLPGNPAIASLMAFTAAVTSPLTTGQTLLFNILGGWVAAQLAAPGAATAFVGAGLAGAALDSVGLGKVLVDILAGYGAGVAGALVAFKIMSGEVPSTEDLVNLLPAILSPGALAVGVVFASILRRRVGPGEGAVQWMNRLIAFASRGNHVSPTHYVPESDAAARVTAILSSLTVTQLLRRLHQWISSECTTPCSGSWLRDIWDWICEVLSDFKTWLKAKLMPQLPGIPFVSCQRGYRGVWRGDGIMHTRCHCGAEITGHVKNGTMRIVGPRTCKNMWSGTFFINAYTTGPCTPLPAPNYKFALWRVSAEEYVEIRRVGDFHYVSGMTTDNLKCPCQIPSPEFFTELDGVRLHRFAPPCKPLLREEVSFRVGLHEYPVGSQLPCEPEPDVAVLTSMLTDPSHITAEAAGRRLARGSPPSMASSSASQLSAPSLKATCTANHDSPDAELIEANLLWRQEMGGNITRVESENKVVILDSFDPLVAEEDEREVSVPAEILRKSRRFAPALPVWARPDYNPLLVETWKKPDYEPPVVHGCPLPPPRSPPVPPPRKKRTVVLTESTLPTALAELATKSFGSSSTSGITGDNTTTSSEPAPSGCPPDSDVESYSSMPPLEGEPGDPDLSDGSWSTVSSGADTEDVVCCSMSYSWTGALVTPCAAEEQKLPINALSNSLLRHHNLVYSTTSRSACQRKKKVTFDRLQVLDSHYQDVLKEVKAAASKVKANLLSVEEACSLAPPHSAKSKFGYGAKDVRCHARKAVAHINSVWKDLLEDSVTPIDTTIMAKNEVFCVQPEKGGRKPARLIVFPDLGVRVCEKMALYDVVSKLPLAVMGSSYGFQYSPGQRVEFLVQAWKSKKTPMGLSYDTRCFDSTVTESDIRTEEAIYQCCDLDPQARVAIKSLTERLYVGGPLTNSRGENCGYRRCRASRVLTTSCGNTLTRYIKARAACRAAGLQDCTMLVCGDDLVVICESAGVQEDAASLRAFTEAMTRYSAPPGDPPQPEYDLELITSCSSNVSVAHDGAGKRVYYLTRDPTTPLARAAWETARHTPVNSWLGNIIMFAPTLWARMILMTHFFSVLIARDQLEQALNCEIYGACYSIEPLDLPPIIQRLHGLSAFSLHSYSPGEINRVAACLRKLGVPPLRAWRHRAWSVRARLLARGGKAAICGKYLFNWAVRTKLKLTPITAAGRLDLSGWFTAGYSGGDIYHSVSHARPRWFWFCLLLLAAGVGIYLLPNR

SMILES | EC50 | pEC50
C/C=C/C[C@@H](C)C(=O)[C@@H]1NC(=O)[C@H](C(C)C)N(C)C(=O)[C@H](CC(C)C)N(C)C(=O)[C@H](CC(C)C)N(C)C(=O)[C@@H](C)NC(=O)[C@H](C)NC(=O)[C@H](CC(C)C)N(C)C(=O)[C@H](C(C)C)NC(=O)[C@H](C(C)(C)CNC)N(C)C(=O)[C@@H](C)N(C)C(=O)[C@H](CC)NC1=O [US9669095, 1] | in the range around 55 nM | –
CCCC[C@@H](C)C(=O)[C@@H]1NC(=O)[C@H](C(C)C)N(C)C(=O)[C@H](CC(C)C)N(C)C(=O)[C@H](CC(C)C)N(C)C(=O)[C@@H](C)NC(=O)[C@H](C)NC(=O)[C@H](CC(C)C)N(C)C(=O)[C@H](C(C)C)NC(=O)[C@H](C(C)(C)CO)N(C)C(=O)[C@@H](C)N(C)C(=O)[C@H](CC)NC1=O [US9669095, 2] | in the range around 55 nM | –
CCCC[C@@H](C)C(=O)[C@@H]1NC(=O)[C@H](C(C)C)N(C)C(=O)[C@H](CC(C)C)N(C)C(=O)[C@H](CC(C)C)N(C)C(=O)[C@@H](C)NC(=O)[C@H](C)NC(=O)[C@H](CC(C)C)N(C)C(=O)[C@H](C(C)C)NC(=O)[C@H](C(C)(C)COC(=O)NC)N(C)C(=O)[C@@H](C)N(C)C(=O)[C@H](CC)NC1=O [US9669095, 3] | in the range around 55 nM | –
CCCC[C@@H](C)C(=O)[C@@H]1NC(=O)[C@H](C(C)C)N(C)C(=O)[C@H](CC(C)C)N(C)C(=O)[C@H](CC(C)C)N(C)C(=O)[C@@H](C)NC(=O)[C@H](C)NC(=O)[C@H](CC(C)C)N(C)C(=O)[C@H](C(C)C)NC(=O)[C@H](C(C)(C)COC(=O)N(C)C)N(C)C(=O)[C@@H](C)N(C)C(=O)[C@H](CC)NC1=O [US9669095, 4] | in the range around 55 nM | –
C/C=C/C[C@@H](C)C(=O)[C@@H]1NC(=O)[C@H](C(C)C)N(C)C(=O)[C@H](CC(C)C)N(C)C(=O)[C@H](CC(C)C)N(C)C(=O)[C@@H](C)NC(=O)[C@H](C)NC(=O)[C@H](CC(C)C)N(C)C(=O)[C@H](C(C)C)NC(=O)[C@H](C(C)(C)COC(=O)NC)N(C)C(=O)[C@@H](C)N(C)C(=O)[C@H](CC)NC1=O [US9669095, 5] | in the range around 55 nM | –
CC[C@@H]1NC(=O)[C@H](C(=O)[C@H](C)CCCCCN2CCOCC2)NC(=O)[C@@H](C(C)C)N(C)C(=O)[C@H](CC(C)C)N(C)C(=O)[C@H](CC(C)C)N(C)C(=O)[C@@H](C)NC(=O)[C@H](C)NC(=O)[C@@H](CC(C)C)N(C)C(=O)[C@H](C(C)C)NC(=O)[C@H](C(C)(C)CN(C)C(=O)OC)N(C)C(=O)[C@@H](C)N(C)C1=O [US9669095, 6] | in the range around 55 nM | –
CC[C@@H]1NC(=O)[C@H](C(=O)[C@H](C)CCCCCSc2nnnn2C)NC(=O)[C@H](C(C)C)N(C)C(=O)[C@H](CC(C)C)N(C)C(=O)[C@H](CC(C)C)N(C)C(=O)[C@@H](C)NC(=O)[C@H](C)NC(=O)[C@H](CC(C)C)N(C)C(=O)[C@H](C(C)C)NC(=O)[C@H](C(C)(C)CN(C)C(=O)OC)N(C)C(=O)[C@@H](C)N(C)C1=O [US9669095, 7] | in the range around 55 nM | –
CC[C@@H]1NC(=O)[C@H](C(=O)[C@H](C)CCCCCN2CCOCC2)NC(=O)[C@H](C(C)C)N(C)C(=O)[C@H](CC(C)C)N(C)C(=O)[C@H](CC(C)C)N(C)C(=O)[C@@H](C)NC(=O)[C@H](C)NC(=O)[C@H](CC(C)C)N(C)C(=O)[C@H](C(C)C)NC(=O)[C@H](C(C)(C)CN(C)C(=O)[C@@H](NC(=O)OC)C(C)C)N(C)C(=O)[C@@H](C)N(C)C1=O [US9669095, 8] | in the range around 55 nM | –
CC[C@@H]1NC(=O)[C@H](C(=O)[C@H](C)CCCCCSc2nnnn2C)NC(=O)[C@@H](C(C)C)N(C)C(=O)[C@H](CC(C)C)N(C)C(=O)[C@H](CC(C)C)N(C)C(=O)[C@@H](C)NC(=O)[C@H](C)NC(=O)[C@@H](CC(C)C)N(C)C(=O)[C@H](C(C)C)NC(=O)[C@H](C(C)(C)CN(C)C(=O)[C@@H](NC(=O)OC)C(C)C)N(C)C(=O)[C@@H](C)N(C)C1=O [US9669095, 9] | in the range around 55 nM | –
C/C=C/C[C@@H](C)C1ON2C(=O)[C@H](C(C)C)N(C)C(=O)[C@H](CC(C)C)N(C)C(=O)[C@@H](CC(C)C)N(C)C(=O)[C@@H](C)NC(=O)[C@H](C)NC(=O)[C@H](CC(C)C)N(C)C(=O)[C@H](C(C)C)NC(=O)[C@H](C(C)(C)COC(=O)NS(C)(=O)=O)N(C)C(=O)[C@@H](C)N(C)C(=O)[C@H](CC)NC(=O)[C@H]12 (stereo partly drawn) [US9669095, 11] | – | < 6.00
C/C=C/C[C@@H](C)C1ON2C(=O)[C@H](C(C)C)N(C)C(=O)[C@H](CC(C)C)N(C)C(=O)[C@@H](CC(C)C)N(C)C(=O)[C@@H](C)NC(=O)[C@H](C)NC(=O)[C@H](CC(C)C)N(C)C(=O)[C@H](C(C)C)NC(=O)[C@H](C(C)(C)COC(=O)NS(=O)(=O)c3ccccc3)N(C)C(=O)[C@@H](C)N(C)C(=O)[C@H](CC)NC(=O)[C@H]12 (stereo partly drawn) [US9669095, 12] | in the range around 550 nM | –
C/C=C/C[C@@H](C)C1ON2C(=O)[C@H](C(C)C)N(C)C(=O)[C@H](CC(C)C)N(C)C(=O)[C@@H](CC(C)C)N(C)C(=O)[C@@H](C)NC(=O)[C@H](C)NC(=O)[C@H](CC(C)C)N(C)C(=O)[C@H](C(C)C)NC(=O)[C@H](C(C)(C)CN(C)C(=O)NS(C)(=O)=O)N(C)C(=O)[C@@H](C)N(C)C(=O)[C@H](CC)NC(=O)[C@H]12 (stereo partly drawn) [US9669095, 13] | in the range around 550 nM | –
C/C=C/C[C@@H](C)C1ON2C(=O)[C@H](C(C)C)N(C)C(=O)[C@H](CC(C)C)N(C)C(=O)[C@@H](CC(C)C)N(C)C(=O)[C@@H](C)NC(=O)[C@H](C)NC(=O)[C@H](CC(C)C)N(C)C(=O)[C@H](C(C)C)NC(=O)[C@H](C(C)(C)CN(C)C(=O)NS(=O)(=O)c3ccccc3)N(C)C(=O)[C@@H](C)N(C)C(=O)[C@H](CC)NC(=O)[C@H]12 (stereo partly drawn) [US9669095, 14] | in the range around 550 nM | –
